Source: patent EP4775036A2, “SYNERGISTIC FORMULATIONS FOR CONTROL AND REPELLENCY OF BITING ARTHROPODS” (Bedoukian Research, Inc., priority 2020, dated 2022)
“And” between values parts separate entries of the source, which are not always exact repeats. Equal values may be shown once.

Columns and labels:
[1] = test system: Aedes aegypti; assay: Laboratory screening, modified K & D chamber (Gupta Box), treated blood-filled membrane wells; assay type: in vivo; settings: adjusted, relative to control
Method: A modified K & D chamber or "Gupta Box" was used to screen 4 compounds plus an untreated control, simultaneously. Five replicates of 250 adult female mosquitoes each were placed in clear plastic cages (Gupta boxes) with access to five warmed, blood-filled, membrane-covered wells. The mosquitoes used were Aedes aegypti. Membranes were treated with repellent dilutions or diluent only. Five replicates were tested, rotating positions within the chamber. Each replicate used a fresh batch of mosquitoes, blood and treated membranes. The number of mosquitoes probing each well was recorded at two minute intervals for 20 minutes. The total numbers of probes on each well were tallied at the end of the observation period and the average percentage repellency relative to the control was calculated for each formulation. To compare formulations from different tests, the control probes were adjusted to 100 for each test and the formula then applied to each formulation to adjust accordingly. For laboratory testing, additive repellency was determined by adding the adjusted percent repellency for each dose used in the combination treatment. This "Expected additive repellency" was then compared to the "actual repellency" seen when the combination was tested in the Gupta box.

[2] = test system: Aedes aegypti mosquitoes; assay: Arm in cage testing (Modified WHO - Nigel Hill protocol), dose response curves on human subjects, LDP line analysis; assay type: in vivo; settings: for Index: ED50 comparison of LDP lines, lowest ED50 = 100; for RR: ED50 relative to the line with the lowest ED50
Method: A Modified WHO - Nigel Hill protocol was used for Dose Response curve generation. Three concurrent repetitions were conducted with 4 subjects (2 male, 2 female). Approximately 60 non blood-fed, female Aedes aegypti mosquitoes were placed in a 12"X12"X12" (28316.85 cm^3) plexi and screen cage.
Arms were inserted into the first cage for 30 seconds, with number of landings (with intent to bite) recorded at the end of the time interval. The same procedure was used for the 2nd and 3rd cage in succession. Control arm was inserted first, followed by the opposite arm treated with ethanol only (as a treatment control). The 'treatment arm' is then treated with dose 1 and inserted, then dose 2, dose 3, and so on. After complete protection was achieved, control arm was reinserted to verify continued activity.
Percent repellency was calculated by utilizing the formula [{(C-T)/C}*100]. Where C = the number of mosquitoes landing with intent to bite on the ethanol only treated arm, and T = the number of mosquitoes landing with intent to bite on the 'repellent' treated arm. LDP line® software (Bakr, E 2007) was used to determine ED50 (effective dose to repel 50%) and compare materials.
Following the Definition of Synergy (the interaction or cooperation of two or more organizations, substances, or other agents to produce a combined effect greater than the sum of their separate effects), an 'additive measure' was used to determine synergy in the laboratory testing, as well as in the human testing. […] Significance was determined by the use of 95% confidence intervals.
For human testing, the LDP Line software was used to determine "additive repellency" differences.

[3] = 0.5% of the compound alone on membrane
[4] = 1% of the compound alone on membrane
[5] = DEET Combinations, calculations based on DEET dose
[6] = human arm in cage, DEET dose, DEET alone or in the combination (calculations based on DEET dosage)
[7] = human arm in cage, compound alone
[8] = PMD Combinations, calculations based on PMD dose
[9] = human arm in cage, PMD dose, PMD alone or in the combination (calculations based on PMD dosage)

`CCN(CC)C(=O)c1cccc(C)c1` [DEET, N,N-Diethyl-m-toluamide] was tested, and the percent repellency [1, 3] was 29.55%, the percent repellency [1, 4] was 52.9% and the “ED90 (%AI)” value [2, 5] was 1.443 %AI. The Index [2, 5] was 10.32, the RR [2, 5] was 9.69 and the “% Repelled” value ([2]; DEET alone at Dose 0.0351 % Active (its ED25)) was 25%. For the same compound, the “ED25, Dose (% DEET)” value [2, 6] was 0.035 % DEET and 0.0351 % DEET, the “ED50, Dose (% DEET)” value [2, 6] was 0.1263 % DEET and 0.126 % DEET and the “ED75, Dose (% DEET)” value [2, 6] was 0.4552 % DEET. The “ED90, Dose (% DEET)” value [2, 6] was 1.4431 % DEET and the “ED95, Dose (% DEET)” value [2, 6] was 2.8783 % DEET.

`CCCCCCCCC1CCC(=O)O1` (centres unmarked) [Gamma Dodecalactone, gamma-dodecalactone] was tested, and the “% Repelled” value ([2]; Gamma Dodecalactone alone at Dose 0.4177 % Active (its ED25)) was 25%, the “ED25, Dose (% γ Dodecalactone)” value [2, 7] was 0.4177 % γ Dodecalactone and the “ED50, Dose (% γ Dodecalactone)” value [2, 7] was 1.8022 % γ Dodecalactone. The “ED75, Dose (% γ Dodecalactone)” value [2, 7] was 7.7764 % γ Dodecalactone, the “ED90, Dose (% γ Dodecalactone)” value [2, 7] was 28.994 % γ Dodecalactone and the “ED95, Dose (% γ Dodecalactone)” value [2, 7] was 63.726 % γ Dodecalactone.

In the case of `CC(=O)CCC=C(C)CCC=C(C)C` [Geranyl Acetone, 6,10-dimethyl-5,9-undecadien-2-one], the percent repellency [1, 3] is reported as 26.7% and 26.69%, the “% Repelled” value ([2]; Geranyl Acetone alone at Dose 0.736 % Active (its ED25)) is reported as 25% and the “ED25, Dose (% Geranyl Acetone)” value [2, 7] is reported as 0.736 % Geranyl Acetone. For the same compound, the “ED50, Dose (% Geranyl Acetone)” value [2, 7] was 2.831 % Geranyl Acetone, the “ED75, Dose (% Geranyl Acetone)” value [2, 7] was 10.889 % Geranyl Acetone and the “ED90, Dose (% Geranyl Acetone)” value [2, 7] was 36.608 % Geranyl Acetone. For the same compound, the “ED95, Dose (% Geranyl Acetone)” value [2, 7] was 75.631 % Geranyl Acetone.

`CC(O)C(=O)O` (centres unmarked) [Lactic Acid, Lactic acid] was tested, and the “% Repelled” value ([2]; Lactic Acid alone at Dose 2.7938 % Active (its ED25)) was 25%, the “ED25, Dose (% Lactic Acid)” value [2, 7] was 2.794 % Lactic Acid and the “ED50, Dose (% Lactic Acid)” value [2, 7] was 6.143 % Lactic Acid. The “ED75, Dose (% Lactic Acid)” value [2, 7] was 13.51 % Lactic Acid, the “ED90, Dose (% Lactic Acid)” value [2, 7] was 27.45 % Lactic Acid and the “ED95, Dose (% Lactic Acid)” value [2, 7] was 41.96 % Lactic Acid.

For `CC1CCC(C(C)(C)O)C(O)C1` (centres unmarked) [PMD, para-menthane-3,8-diol], the percent repellency [1, 4] was 26.35% and 26.4%, the percent repellency ([1]; 1.5% of the compound alone on membrane) was 34.6% and the “ED90 (%AI)” value [2, 8] was 3.846 %AI. For the same compound, the Index [2, 8] was 4.36, the RR [2, 8] was 22.94 and the “% Repelled” value ([2]; PMD alone at Dose 0.1275 % Active (its ED25)) was 25%. The “ED25, Dose (% PMD)” value [2, 9] was 0.128 % PMD and 0.1275 % PMD, the “ED50, Dose (% PMD)” value [2, 9] was 0.4128 % PMD and 0.413 % PMD and the “ED75, Dose (% PMD)” value [2, 9] was 1.3362 % PMD. For the same compound, the “ED90, Dose (% PMD)” value [2, 9] was 3.8464 % PMD and the “ED95, Dose (% PMD)” value [2, 9] was 7.2415 % PMD.
